Biological target: T1, mPGES-1 (Homo sapiens, UniProt O14684)
T1 construct: made in house; host or cells: E. coli (membrane fraction)
T1 sequence (O14684 1-152): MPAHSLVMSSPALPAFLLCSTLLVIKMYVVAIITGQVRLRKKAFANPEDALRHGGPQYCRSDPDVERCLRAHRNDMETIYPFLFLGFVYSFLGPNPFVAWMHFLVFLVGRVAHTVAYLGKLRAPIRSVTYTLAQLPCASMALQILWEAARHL
Assay: mPGES-1 assay: conversion of PGH2 to PGE2, PGE2 analysed by HPLC
Type: biochemical
Parameters: dose or concentration left out as unconfirmed
Protocol: In the assay mPGES-1 catalyses the reaction where the substrate PGH2 is converted to PGE2. mPGES-1 is expressed in E. coli and the membrane fraction is dissolved in 20 mM NaPi-buffer pH 8.0 and stored at −80° C. In the assay mPGES-1 is dissolved in 0.1M KPi-buffer pH 7.35 with 2.5 mM glutathione. The stop solution consists of H2O/MeCN (7/3), containing FeCl2 (25 mM) and HCl (0.15 M). The assay is performed at room temperature in 96-well plates. Analysis of the amount of PGE2 is performed with reversed phase HPLC (Waters 2795 equipped with a 3.9×150 mm C18 column). The mobile phase consists of H2O/MeCN (7/3), containing TFA (0.056%), and absorbance is measured at 195 nm with a Waters 2487 UV-detector.
The following is added chronologically to each well: • 1. 100 μL mPGES-1 in KPi-buffer with glutathione. Total protein concentration: 0.02 mg/mL. • 2. 1 μL inhibitor in DMSO. Incubation of the plate at room temperature for 25 minutes. • 3. 4 μL of a 0.25 mM PGH2 solution. Incubation of the plate at room temperature for 60 seconds. • 4. 100 μL stop solution. • 180 μL per sample is analyzed with HPLC.

SMILES | inhibition of mPGES-1 [%]
O=C(O)c1cccc(-c2c(C(=O)O)n(Cc3cccc(C(F)(F)F)c3)c3cccc(-c4ccccc4)c23)c1 [Example 6, 3-(3-Carboxyphenyl)-4-phenyl-1-[3-(trifluoromethyl)benzyl]indole-2-carboxylic acid] | 100
O=C(O)c1cccc(-c2c(C(=O)O)n(Cc3cccc([N+](=O)[O-])c3)c3cc(-c4ccc(OCc5ccccc5)cc4)ccc23)c1 [Example 5, 6-(4-Benzyloxyphenyl)-3-(3-carboxyphenyl)-1-(3-nitrobenzyl)indole-2-carboxylic acid] | 93
O=C(O)c1c(-c2ccccc2)c2cc(-c3cccnc3)ccc2n1CCCc1ccccc1 [Example 4, 3-Phenyl-1-(3-phenylpropyl)-5-(3-pyridyl)indole-2-carboxylic acid] | 81
O=C(O)c1c(-c2ccccc2)c2cc(-c3ccc4c(c3)OCO4)ccc2n1CCCc1ccccc1 [Example 3, 5-(3,4-Methylenedioxyphenyl)-3-phenyl-1-(3-phenylpropyl)indole-2-carboxylic acid] | 85
CC(C)(C)c1ccc(-c2ccc3c(-c4cccs4)c(C(=O)O)n(Cc4cccc(Oc5ccccc5)c4)c3c2)cc1 [Example 2, 6-(4-tert-Butylphenyl)-1-(3-phenoxybenzyl)-3-(2-thienyl)indole-2-carboxylic acid] | 100
CC(C)(C)c1ccc(-c2ccc3c(-c4ccccc4)c(C(=O)O)n(Cc4cccc(Oc5ccccc5)c4)c3c2)cc1 [Example 1, 6-(4-tert-Butylphenyl)-1-(3-phenoxybenzyl)-3-phenylindole-2-carboxylic acid] | 96

From patent publication US20060160879A1, “Indoles useful in the treatment of inflammation” (priority 2003, published 2006)
